Structures can show the parent of a compound that is named as a salt.
Biological target: T1, c-Myc/Max/Ebox DNA (Homo sapiens, UniProt P01106)
T1 construct: his6 (cleaved yes)
Experiment: c-Myc/Max/Ebox DNA AlphaScreen Assay
Type: binding
Conditions: free c-Myc 20 nM, his6-Max 5 nM, biotinylated Ebox oligo 10 nM, 2 hour incubation
Protocol: Compounds of the invention were assayed for c-Myc/Max/EBox activity as described in the following protocol. Human his6-c-Myc and his6-Max were used with biotinylated DNA containing a single Ebox sequence (biotin[…]) purchased from MWG Operon. Free c-Myc was generated from his6-c-Myc through thrombin cleavage of the his6 tag. For 384-well plate assays, 10 μL of a 2× solution of free c-Myc (20 nM final), Ni^2+ coated Acceptor Beads (25 μg/ml final), and biotinylated Ebox oligo (10 nM final) were added to 384-well plates with a Biotek EL406 liquid handler. 50 nL of compounds from stock plates were added by pin transfer using a Janus Workstation (PerkinElmer), allowing the compounds to interact with c-Myc prior to c-Myc binding with Max. In the current assay, DMSO was not allowed to exceed 2% v/v of the assay. 10 μl of 2× master mix containing streptavidin-coated donor beads (25 μg/ml final) and his6-Max (5 nM) were added. AlphaScreen measurements were performed on an Envision plate reader (PerkinElmer) utilizing the manufacturer's protocol.
Both master mixes were made in room temperature assay buffer (50 mM HEPES, 150 mM NaCl, 0.2% w/v BSA, 0.02% w/v Tween20, 40 μg/ml glycogen, 500 μM DTT, pH 8.0, wherein both DTT and glycogen were added fresh). Alpha beads were added to respective master solutions. All subsequent steps were performed in low light conditions. Solution 1: 2× solution of components with final concentrations of c-Myc Ni-coated Acceptor Beads (25 μg/ml), and biotinylated Ebox oligo (10 nM). Solution 2: 2× solution of streptavidin-coated donor beads (25 μg/ml final) and his6-Max […]. Solution 1 was added to 384-well plate (AlphaPlate-384, PerkinElmer) with Biotek EL406 liquid handler and the plates were centrifuged very briefly. 50 nL of compounds from stock plates were added by pin transfer using a Janus Workstation. Solution 2 (10 μL) was added with the liquid handler. Plates were sealed with foil to block light exposure and prevent evaporation. Plates were very briefly centrifuged followed by 2 hour incubation. AlphaScreen measurements were performed on an Envision 2104 utilizing the manufacturer's protocol. Excitation was at 680 nm for donor bead release of singlet oxygen and emission was read with a bandpass filter from 520-620 nm. Glycogen: Roche Diagnostics #10901393001. Plate 1536: Perkin Elmer, 6004350. Plate 384: Perkin Elmer, 6005350. Nickel-His Alpha Beads: 6760619R. The data from this assay are summarized in Table 3 below (Myc/Max/DNA Activity).

T1 sequence (P01106 whole entry): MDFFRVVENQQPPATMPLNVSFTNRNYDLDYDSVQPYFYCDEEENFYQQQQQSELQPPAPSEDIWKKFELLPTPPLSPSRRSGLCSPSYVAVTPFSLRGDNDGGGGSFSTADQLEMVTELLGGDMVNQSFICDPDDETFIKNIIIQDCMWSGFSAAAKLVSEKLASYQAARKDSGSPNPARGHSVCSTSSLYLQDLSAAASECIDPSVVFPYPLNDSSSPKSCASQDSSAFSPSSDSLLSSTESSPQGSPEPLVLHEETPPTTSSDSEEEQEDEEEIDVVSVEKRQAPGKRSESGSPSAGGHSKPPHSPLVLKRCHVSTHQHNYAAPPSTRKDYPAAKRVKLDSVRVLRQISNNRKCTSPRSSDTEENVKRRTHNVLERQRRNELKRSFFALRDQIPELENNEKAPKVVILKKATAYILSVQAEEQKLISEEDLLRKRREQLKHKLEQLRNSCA

Structure (SMILES) | IC50 [nM]
O=C(CCNCc1ncon1)Nc1sc2c(c1-c1nc3cnccc3s1)CCNC2 [Compound 181] | < 500
CC(=O)Nc1sc2c(c1-c1nc3cnccc3s1)CNC2 [Compound 102, N-(3-(thiazolo[4,5-c]pyridin-2-yl)-5,6-dihydro-4H-thieno[2,3-c]pyrrol-2-yl)acetamide] | 500 to 5000
Cc1nc(CNCCC(=O)Nc2sc3c(c2-c2nc4cnccc4s2)CCNC3)no1 [Compound 180] | < 500
Cc1ccc(CNCCC(=O)Nc2sc3c(c2-c2nc4cnccc4s2)CCNC3)s1 [Compound 185] | < 500
O=C(CCNC1CNCC1O)Nc1sc2c(c1-c1nc3cnccc3s1)CCNC2 (stereo not drawn) [Compound 146] | < 500
O=C(CCNC1CC(O)C1)Nc1sc2c(c1-c1nc3cnccc3s1)CCNC2 (stereo not drawn) [Compound 167] | < 500
O=C(CCNCc1ccno1)Nc1sc2c(c1-c1nc3cnccc3s1)CCNC2 [Compound 141] | < 500
CC1(C#N)CN(CCC(=O)Nc2sc3c(c2-c2nc4cnccc4s2)CCNC3)C1 [Compound 196] | 500 to 5000
O=C(CCN[C@H]1[C@@H]2CNC[C@@H]21)Nc1sc2c(c1-c1nc3cnccc3s1)CCNC2 [Compound 211] | < 500
CC1CC(NCCC(=O)Nc2sc3c(c2-c2nc4cnccc4s2)CCNC3)C1 (stereo not drawn) [Compound 133] | < 500
CC(C)c1nc(CNCCC(=O)Nc2sc3c(c2-c2nc4cnccc4s2)CCNC3)no1 [Compound 179] | 500 to 5000
Cc1cc(CC(C)NCCC(=O)Nc2sc3c(c2-c2nc4cnccc4s2)CCNC3)on1 (stereo not drawn) [Compound 156] | < 500
O=C(CCN1CC2(CNC2)C1)Nc1sc2c(c1-c1nc3cnccc3s1)CCNC2 [Compound 123] | < 500
CC(=O)Nc1sc2c(c1-c1nc3cnccc3s1)CCN(CCN)C2 [Compound 121, N-(6-(2-aminoethyl)-3-(thiazolo[4,5-c]pyridin-2-yl)-4,5,6,7-tetrahydrothieno[2,3-c]pyridin-2-yl)acetamide hydrochloride] | 500 to 5000
O=C(CCNCC1(O)CC1)Nc1sc2c(c1-c1nc3cnccc3s1)CCNC2 [Compound 210] | < 500
CC(=O)Nc1sc2c(c1-c1nc3cnccc3s1)CCN(C(C)C)C2 [Compound 115, N-(6-isopropyl-3-(thiazolo[4,5-c]pyridin-2-yl)-4,5,6,7-tetrahydrothieno[2,3-c]pyridin-2-yl)acetamide] | 500 to 5000
CCN1CCc2c(sc(NC(C)=O)c2-c2nc3cnccc3s2)[C@H]1C [Compound 229, (R)—N-(6-ethyl-7-methyl-3-(thiazolo[4,5-c]pyridin-2-yl)-4,5,6,7-tetrahydrothieno[2,3-c]pyridin-2-yl)acetamide] | 5000 to 25000
Cc1nc(C)c(CNCCC(=O)Nc2sc3c(c2-c2nc4cnccc4s2)CCNC3)s1 [Compound 159] | 500 to 5000
O=C(CCN1CCCOCC1)Nc1sc2c(c1-c1nc3cnccc3s1)CCNC2 [Compound 170] | < 500

Structure (SMILES) | IC50 [nM]
O=C(CCN1CCc2[nH]ncc2C1)Nc1sc2c(c1-c1nc3cnccc3s1)CCNC2 [Compound 178] | < 500
O=C(CCNCc1cnc2ccccn12)Nc1sc2c(c1-c1nc3cnccc3s1)CCNC2 [Compound 212] | 5000 to 25000
CN(C)[C@H]1CCN(CCC(=O)Nc2sc3c(c2-c2nc4cnccc4s2)CCNC3)C1 [Compound 150] | < 500
O=C(CCNC1CCC1)Nc1sc2c(c1-c1nc3cnccc3s1)CCNC2 [Compound 222, 3-(cyclobutylamino)-N-(3-(thiazolo[4,5-c]pyridin-2-yl)-4,5,6,7-tetrahydrothieno[2,3-c]pyridin-2-yl)propanamide] | < 500
Cc1cccc2c1CCN(CCC(=O)Nc1sc3c(c1-c1nc4cnccc4s1)CCNC3)C2 [Compound 199] | 500 to 5000
O=C(CCNC1CCNCC1)Nc1sc2c(c1-c1nc3cnccc3s1)CCNC2 [Compound 165] | < 500
O=C(CCNCC1CCOCC1)Nc1sc2c(c1-c1nc3cnccc3s1)CCNC2 [Compound 189] | < 500
CC(=O)Nc1sc2c(c1-c1nc3cnccc3s1)C(C)CNC2 (stereo not drawn) [Compound 104, N-(4-methyl-3-(thiazolo[4,5-c]pyridin-2-yl)-4,5,6,7-tetrahydrothieno[2,3-c]pyridin-2-yl)acetamide] | 500 to 5000
O=C(CCN[C@H]1CC[C@@H](O)C1)Nc1sc2c(c1-c1nc3cnccc3s1)CCNC2 [Compound 204] | < 500
COCCNCCC(=O)Nc1sc2c(c1-c1nc3cncnc3s1)CCNC2 [Compound 252] | > 25000
CC1(C)CCCN1CCC(=O)Nc1sc2c(c1-c1nc3cnccc3s1)CCNC2 [Compound 164] | < 500
Cc1ncc(CNCCC(=O)Nc2sc3c(c2-c2nc4cnccc4s2)CCNC3)s1 [Compound 186] | 500 to 5000
O=C(CCN1CCC(c2ccc(Cl)cc2)CC1)Nc1sc2c(c1-c1nc3cnccc3s1)CCNC2 [Compound 143] | 500 to 5000
O=C(CCNC[C@H]1CC2(CCNCC2)CO1)Nc1sc2c(c1-c1nc3cnccc3s1)CCNC2 [Compound 207] | < 500
O=C(CCN1CCn2nccc2C1)Nc1sc2c(c1-c1nc3cnccc3s1)CCNC2 [Compound 198] | 500 to 5000
O=C(CCNCC1CCCC1)Nc1sc2c(c1-c1nc3cnccc3s1)CCNC2 [Compound 175] | < 500
O=C(CCNCc1ccn[nH]1)Nc1sc2c(c1-c1nc3cnccc3s1)CCNC2 [Compound 166] | < 500
C[C@@H](NCCC(=O)Nc1sc2c(c1-c1nc3cnccc3s1)CCNC2)c1cnc2ccccn12 [Compound 192] | < 500
O=C(CCNC1CC1)Nc1sc2c(c1-c1nc3cnccc3s1)CCNC2 [Compound 221, 3-(cyclopropylamino)-N-(3-(thiazolo[4,5-c]pyridin-2-yl)-4,5,6,7-tetrahydrothieno[2,3-c]pyridin-2-yl)propanamide] | < 500

Structure (SMILES) | IC50 [nM]
CCN1[C@H](C)c2sc(NC(C)=O)c(-c3nc4cnccc4s3)c2C[C@@H]1C [Compound 253] | < 500
O=C(CCN1C[C@@H]2CC(F)(F)C[C@@H]2C1)Nc1sc2c(c1-c1nc3cnccc3s1)CCNC2 [Compound 129] | < 500
Cc1coc(CNCCC(=O)Nc2sc3c(c2-c2nc4cnccc4s2)CCNC3)n1 [Compound 140] | 500 to 5000
CC(C)C[C@H](CO)NCCC(=O)Nc1sc2c(c1-c1nc3cnccc3s1)CCNC2 [Compound 138] | < 500
O=C(CCN1CC[C@@H]2NCC[C@@H]21)Nc1sc2c(c1-c1nc3cnccc3s1)CCNC2 [Compound 155] | < 500
O=C(CCN1CCC(OC2CCC2)CC1)Nc1sc2c(c1-c1nc3cnccc3s1)CCNC2 [Compound 149] | < 500
CN(CCC(=O)Nc1sc2c(c1-c1nc3cnccc3s1)CCNC2)Cc1cnc(Cl)s1 [Compound 157] | 500 to 5000
NC(=O)C1(CNCCC(=O)Nc2sc3c(c2-c2nc4cnccc4s2)CCNC3)CCOCC1 [Compound 202] | < 500
O=C(CCN1CCC2COCC2C1)Nc1sc2c(c1-c1nc3cnccc3s1)CCNC2 (stereo not drawn) [Compound 213] | < 500
O=C(CCN1CC2COCC2C1)Nc1sc2c(c1-c1nc3cnccc3s1)CCNC2 (stereo not drawn) [Compound 131] | < 500
CC(=O)Nc1sc2c(c1-c1nc3cnccc3s1)CC(C)NC2C (mixture of isomers) [Compound 109, N-(5,7-dimethyl-3-(thiazolo[4,5-c]pyridin-2-yl)-4,5,6,7-tetrahydrothieno[2,3-c]pyridin-2-yl)acetamide] | 500 to 5000
O=C(CCN[C@H]1COC[C@@H]1O)Nc1sc2c(c1-c1nc3cnccc3s1)CCNC2 [Compound 148] | < 500
O=C(CCNCc1[nH]nc2c1CNC2)Nc1sc2c(c1-c1nc3cnccc3s1)CCNC2 [Compound 200] | < 500
Cc1nc(CN(C)CCC(=O)Nc2sc3c(c2-c2nc4cnccc4s2)CCNC3)no1 [Compound 182] | 500 to 5000
CCN1[C@@H](C)Cc2c(sc(NC(C)=O)c2-c2nc3cnccc3s2)[C@@H]1C [Compound 120, N-((5S,7S)-6-ethyl-5,7-dimethyl-3-(thiazolo[4,5-c]pyridin-2-yl)-4,5,6,7-tetrahydrothieno[2,3-c]pyridin-2-yl)acetamide] | 500 to 5000
O=C(CCNCC1CCNC1)Nc1sc2c(c1-c1nc3cnccc3s1)CCNC2 (stereo not drawn) [Compound 188] | < 500
CC1CN(CCC(=O)Nc2sc3c(c2-c2nc4cnccc4s2)CCNC3)CC(=O)N1 (stereo not drawn) [Compound 144] | 500 to 5000
O=C(CCN1CC2CCC2C1)Nc1sc2c(c1-c1nc3cnccc3s1)CCNC2 (stereo not drawn) [Compound 130] | < 500
O=C(CCN1CCC2(CC2)C1)Nc1sc2c(c1-c1nc3cnccc3s1)CCNC2 [Compound 127] | < 500

From patent publication US11753418B2, “Compounds for the modulation of Myc activity” (Syros Pharmaceuticals, Inc., priority 2015, dated 2023)
